Experiments:
Plasmodium falciparum = test: Antimalarial activity against Plasmodium falciparum infected human RBC; type: functional, organism-based
Plasmepsin II = Plasmepsin II (Plasmodium falciparum, UniProt P46925); test: Inhibition of PM2 by FRET assay
Sequence of Plasmepsin II (P46925 whole entry): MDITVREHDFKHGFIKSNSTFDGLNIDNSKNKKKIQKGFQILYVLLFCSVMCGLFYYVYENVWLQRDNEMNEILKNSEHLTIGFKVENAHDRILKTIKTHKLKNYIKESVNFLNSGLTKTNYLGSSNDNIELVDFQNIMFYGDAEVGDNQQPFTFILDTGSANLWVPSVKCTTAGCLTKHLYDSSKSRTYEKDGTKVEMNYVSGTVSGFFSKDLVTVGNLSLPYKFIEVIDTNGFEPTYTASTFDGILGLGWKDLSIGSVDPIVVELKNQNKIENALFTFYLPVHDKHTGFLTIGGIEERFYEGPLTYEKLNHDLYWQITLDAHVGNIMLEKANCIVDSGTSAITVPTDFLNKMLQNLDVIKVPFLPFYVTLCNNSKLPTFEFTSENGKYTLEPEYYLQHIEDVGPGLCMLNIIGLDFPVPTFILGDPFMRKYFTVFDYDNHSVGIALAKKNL

SMILES	IC50 (Plasmodium falciparum) [nM]	IC50 (Plasmepsin II) [nM]
CCCCCc1ccc(C(=O)N(CCN(CCCC)CCCC)Cc2ccc(N(C)c3ccncc3)cc2)cc1	453	3010
CCCCCc1ccc(C(=O)N(CCN(CCCC)CCCC)Cc2ccc(N(C)c3ccccc3)cc2)cc1	617	574
CCCCCc1ccc(C(=O)N(CCN(CCCC)CCCC)Cc2ccc(NC(=O)c3ccnc(OC)c3)cc2)cc1	623	154
CCCCCc1ccc(C(=O)N(CCN(CC)CCN(CC)CC)Cc2ccc(-c3ccc4c(c3)OCO4)cc2)cc1	–	439
CCCCCc1ccc(C(=O)N(CCN(CC)CC)Cc2ccc(-c3ccc4c(c3)OCO4)cc2)cc1	–	1520
CCCCCc1ccc(C(=O)N(CCN2CCC(CCCc3ccccc3)CC2)Cc2ccc(-c3ccc4c(c3)OCO4)cc2)cc1	–	165
CCCCCc1ccc(C(=O)N(CCN(CCCC)CCCC)Cc2ccc(NC(=O)c3cnccn3)cc2)cc1	605	243
CCCCCc1ccc(C(=O)N(CCN(CCCC)CCCC)Cc2ccc(-c3ccccc3)cn2)cc1	693	2350
CCCCCc1ccc(C(=O)N(Cc2ccc(-c3ccc(CC(=O)OC)cc3)cc2)C2CCN(CCC(C)C)CC2)cc1	1.8	6
CCCCCc1ccc(C(=O)N(CCN(CCCC)CCCC)Cc2ccc(-c3ccccn3)nc2)cc1	411	736
CCCCCc1ccc(C(=O)N(CCN(CCCC)CCCC)Cc2ccc(-c3ccccc3)cc2)cc1	2440	143
CCCCCc1ccc(C(=O)N(CCN(CCCC)CCCC)Cc2ccc(-c3cncnc3)nc2)cc1	560	2230
CCCCCc1ccc(C(=O)N(CCN(CCCC)CCCC)Cc2ccc(-c3cncnc3)cn2)cc1	639	8530
CCCCCc1ccc(C(=O)N(CCN(CCCC)CCCC)Cc2ccc(-c3ccc(CC(=O)O)cc3)cc2)cc1	7150	463
CCCCCc1ccc(C(=O)N(CCN(CCCC)CCCC)Cc2ccc(N3CCN(c4ccccc4)CC3)cc2)cc1	1280	200
CCCCCc1ccc(C(=O)N(CCN(CCCC)CCCC)Cc2ccc(N3CCN(Cc4ccccc4)CC3)cc2)cc1	790	646
CCCCCc1ccc(C(=O)N(CCN(CCCC)CCCC)Cc2ccc(N3CCN(C)CC3)cc2)cc1	431	2550
CCCCCc1ccc(C(=O)N(CCN(CCCC)CCCC)Cc2ccc(-n3cccc3)cc2)cc1	825	240
CCCCCc1ccc(C(=O)N(CCN2CCCCC2)Cc2ccc(-c3ccc4c(c3)OCO4)cc2)cc1	–	334
CCCCCc1ccc(C(=O)N(CCN(CCCC)CCCC)Cc2ccc(-c3cncnc3)cc2)cc1	2230	531
CCCCCc1ccc(C(=O)N(CCN(CCCC)CCCC)Cc2ccc(NCc3ccccc3)cc2)cc1	686	429
CCCCCc1ccc(C(=O)N(CCN(CCCC)CCCC)Cc2ccc(N3CCSCC3)cc2)cc1	1760	188
CCCCCc1ccc(C(=O)N(CCN(CCCC)CCCC)Cc2ccc(-c3cccnc3)cc2)cc1	273	374
CCCCCc1ccc(C(=O)N(CCN(CCCC)CCCC)Cc2ccc(N(CC)CC)cc2)cc1	550	1490
CCCCCc1ccc(C(=O)N(CCN(CCCC)CCCC)Cc2ccc(-c3ccncc3)nc2)cc1	457	642
CCCCCc1ccc(C(=O)N(CCN(CCCC)CCCC)Cc2ccc(-n3ccc4ccccc43)cc2)cc1	739	670
CCCCCc1ccc(C(=O)N(CCN(CCCC)CCCC)Cc2ccc(-c3ccccn3)cc2)cc1	1730	–
CCCCCc1ccc(C(=O)N(CCN(CCCC)CCCC)Cc2ccc(N(C)Cc3ccccc3)cc2)cc1	609	289

SMILES	IC50 (Plasmodium falciparum) [nM]	IC50 (Plasmepsin II) [nM]
CCCCCc1ccc(C(=O)N(CCN(CCCC)CCCC)Cc2ccc(-c3ccc(OCCO)cc3)cc2)cc1	3660	511
CCCCCc1ccc(C(=O)N(CCN(CCCC)CCCC)Cc2ccc(N3CCCCC3)cc2)cc1	628	369
CCCCCc1ccc(C(=O)N(CCN(CCCC)CCCC)Cc2ccc(-c3ccncc3)cc2)cc1	583	212
CCCCCc1ccc(C(=O)N(CCCc2ccccc2)C2CCN(Cc3ccccc3)CC2)cc1	–	1700
CCCCCc1ccc(C(=O)N(CCN(CCC)CCC)Cc2ccc(-c3ccc4c(c3)OCO4)cc2)cc1	–	531
CCCCCc1ccc(C(=O)N(CCN(CCCC)CCCC)Cc2ccc(NC(=O)C3CCCNC3)cc2)cc1 (centres undefined)	376	202
CCCCCc1ccc(C(=O)N(CCN(CCCC)CCCC)Cc2ccc(-c3cccnc3)nc2)cc1	458	587
CCCCCc1ccc(C(=O)N(CCN(CCCC)CCCC)Cc2ccc(-c3ccc4c(c3)OCO4)nc2)cc1	677	437
CCCCCc1ccc(C(=O)N(CCN(CCO)Cc2ccccc2)Cc2ccc(-c3ccc4c(c3)OCO4)cc2)cc1	–	334
CCCCCc1ccc(C(=O)N(CCN(CCCC)CCCC)Cc2ccc(-c3ccc(CC(=O)N4CCOCC4)cc3)cc2)cc1	885	74
CCCCCc1ccc(C(=O)N(CCN(C(C)C)C(C)C)Cc2ccc(-c3ccc4c(c3)OCO4)cc2)cc1	–	1500
CCCCCc1ccc(C(=O)N(CCN(CCCC)CCCC)Cc2ccc(-c3ccncc3)cn2)cc1	630	4550
CCCCCc1ccc(C(=O)N(CCN(CCCC)CCCC)Cc2ccc(-c3ccc4c(c3)OCO4)cn2)cc1	698	1910
CCCCCc1ccc(C(=O)N(CCN(CCCC)CCCC)Cc2ccc(-c3ccc(CC(=O)N(C)Cc4ccccc4)cc3)cc2)cc1	725	91
CCCCCc1ccc(C(=O)N(CCN(CCCC)CCCC)Cc2ccc(-c3ccc(CC(=O)NCc4ccccc4)cc3)cc2)cc1	340	46
CCCCCc1ccc(C(=O)N(CCN(CCCC)CCCC)Cc2ccc(-c3ccc(C(=O)NCc4ccccc4)cc3)cc2)cc1	566	72
CCCCCc1ccc(C(=O)N(CCN(CCCC)CCCC)Cc2ccc(-c3ccc(C(=O)N(C)C)cc3)cc2)cc1	859	77
CCCCCc1ccc(C(=O)N(CCN(CCCC)CCCC)Cc2ccc(NC(=O)C3CCNCC3)cc2)cc1	550	464
CCCCCc1ccc(C(=O)N(CCN(CCCC)CCCC)Cc2ccc(Nc3ccncc3)cc2)cc1	207	1820
CCCCCc1ccc(C(=O)N(CCN2CCC(Cc3ccccc3)CC2)Cc2ccc(-c3ccc4c(c3)OCO4)cc2)cc1	–	190
CCCCCc1ccc(C(=O)N(CCN(CCCC)CCCC)Cc2ccc(Nc3ccccc3)cc2)cc1	539	224
CCCCCc1ccc(C(=O)N(CCN(CCCC)CCCC)Cc2ccc(-c3ccc4c(c3)OCO4)cc2)cc1	1200	101
CCCCCc1ccc(C(=O)N(CCN(CCCC)CCCC)Cc2ccc(-c3ccccc3)nc2)cc1	609	589
CCCCCc1ccc(C(=O)N(CCN2CCOCC2)Cc2ccc(-c3ccc4c(c3)OCO4)cc2)cc1	–	2900
CCCCCc1ccc(C(=O)N(CCN(CCCC)CCCC)Cc2ccc(-c3ccc(C(=O)N4CCSCC4)cc3)cc2)cc1	751	56
CCCCCc1ccc(C(=O)N(CCN(CCCC)CCCC)Cc2ccc(-c3cccnc3)cn2)cc1	465	5270
CCCCCc1ccc(C(=O)N(CCN(CCCC)CCCC)Cc2ccc(-c3ccc(CC(=O)OC)cc3)cc2)cc1	2470	183
